Like-named read-outs stand apart in the source and are kept apart here.
Experiments:
[1] = system: cucumber downy mildew; assay: Persistence comparative test against cucumber downy mildew (greenhouse); format: in vivo
[2] = system: banana anthracnose; format: cell-based
[3] = system: rice blast; format: cell-based
[4] = system: sigatoka; format: cell-based
[5] = system: corn rust; assay: Greenhouse pot seedling assay, corn rust; format: in vivo; details: for Control (%): comparative test, Table 20; for control of corn rust: greenhouse
[6] = system: wheat powdery mildew; assay: Greenhouse pot seedling assay, wheat powdery mildew; format: in vivo; details: 400 ppm
[7] = system: rice sheath blight; format: cell-based
[8] = system: rice blast; format: in vivo
[9] = system: mango anthracnose; format: cell-based
[10] = system: cucumber downy mildew; assay: Field trial against cucumber downy mildew; format: in vivo; details: for Control (%) average: average of 3 replicates; for Control (%) I: replicate I; for Control (%) II: replicate II; for Control (%) III: replicate III
Protocol: The trial was carried out in a greenhouse in July 2011 in […] district, Shanxi Province. Before the treatment, the cucumber plants were at the beginning of infection. The trial method was based on the National Standard of the People's Republic of China-“Pesticide-Guidelines for The Field Efficacy Trials”. […] The Area of plot was 15 m^2, random arrangement and 3 times replication. The volume was about 600 L/hm^2, and water was as the control. Efficacy calculation method is as follows: [formula] [formula]

[11] = system: corn southern leaf blight; format: cell-based
[12] = system: cucumber downy mildew; assay: Greenhouse pot seedling assay, cucumber downy mildew; format: in vivo; details: for Control (%): comparative test, Table 18; for control of cucumber downy mildew: greenhouse

With `CNC(=O)c1ccccc1NC(=O)COc1ccc(CNC(=O)c2c(Cl)c(C)nn2C)cc1` [Compound 15] the “Control (%)” value ([1]; 25 ppm, inoculation 3 days after treatment) was 52%, the “Control (%)” value ([1]; 25 ppm, inoculation 7 days after treatment) was 44% and the “Control (%)” value ([1]; 50 ppm, inoculation 3 days after treatment) was 74%. The “Control (%)” value ([1]; 50 ppm, inoculation 7 days after treatment) was 62%, the “Control (%)” value ([1]; 100 ppm, inoculation 3 days after treatment) was 96% and the “Control (%)” value ([1]; 100 ppm, inoculation 7 days after treatment) was 70%. The “Control (%)” value ([1]; 200 ppm, inoculation 3 days after treatment) was 100%, the “Control (%)” value ([1]; 200 ppm, inoculation 7 days after treatment) was 74% and the “Control (%)” value ([1]; 400 ppm, inoculation 3 days after treatment) was 100%. For the same molecule, the “Control (%)” value ([1]; 400 ppm, inoculation 7 days after treatment) was 81%, the “EC50 against banana anthracnose” value [2] was 2.867 ppm and the “inhibition ratio on spore germination of rice blast” value ([3]; 0.3 ppm) was 100%. For the same molecule, the “inhibition ratio on spore germination of rice blast” value ([3]; 25 ppm) was 100%, the EC50 against sigatoka [4] was 2.389 ppm and the “Control (%)” value ([5]; 3.13 ppm) was 20%. For the same molecule, the “Control (%)” value ([5]; 6.25 ppm) was 60%, the “Control (%)” value ([5]; 12.5 ppm) was 80% and the “Control (%)” value ([5]; 25 ppm) was 95%. For the same molecule, the “control of corn rust” value ([5]; 25 ppm) was 100%, the “Control (%)” value ([5]; 50 ppm) was 100% and the “Control (%)” value ([5]; 100 ppm) was 100%. The “Biological activity in greenhouse, corn rust” value ([5]; 400 ppm, Table 21) was 100, the “control of corn rust” value ([5]; 400 ppm) was 100% and the “Biological activity in greenhouse, wheat powdery mildew” value ([6]; Table 21) was 100. For the same molecule, the “control of wheat powdery mildew” value ([6]; greenhouse) was 100%, the “EC50 against rice sheath blight” value [7] was 0.799 ppm and the “Control (%) I” value ([8]; 400 ppm) was 69%. For the same molecule, the “Control (%) II” value ([8]; 400 ppm) was 71%, the “Control (%) III” value ([8]; 400 ppm) was 67% and the “Control (%) average” value ([8]; 400 ppm) was 69%. For the same molecule, the “Control (%) I” value ([8]; 600 ppm) was 77%, the “Control (%) II” value ([8]; 600 ppm) was 81% and the “Control (%) III” value ([8]; 600 ppm) was 77%. The “Control (%) average” value ([8]; 600 ppm) was 78%, the “Control (%) I” value ([8]; 800 ppm) was 84% and the “Control (%) II” value ([8]; 800 ppm) was 89%. For the same molecule, the “Control (%) III” value ([8]; 800 ppm) was 88%, the “Control (%) average” value ([8]; 800 ppm) was 87% and the “EC50 against mango anthracnose” value [9] was 1.518 ppm. For the same molecule, the “Control (%) average” value ([10]; 100 ppm) was 52%, the “Control (%) I” value ([10]; 100 ppm) was 33% and the “Control (%) II” value ([10]; 100 ppm) was 53%. The “Control (%) III” value ([10]; 100 ppm) was 69%, the “Control (%) average” value ([10]; 200 ppm) was 66% and the “Control (%) I” value ([10]; 200 ppm) was 60%. For the same molecule, the “Control (%) II” value ([10]; 200 ppm) was 65%, the “Control (%) III” value ([10]; 200 ppm) was 72% and the “Control (%) average” value ([10]; 400 ppm) was 82%. For the same molecule, the “Control (%) I” value ([10]; 400 ppm) was 80%, the “Control (%) II” value ([10]; 400 ppm) was 81% and the “Control (%) III” value ([10]; 400 ppm) was 86%. For the same molecule, the “EC50 against corn southern leaf blight” value [11] was 0.035 ppm, the “Control (%)” value ([12]; 6.25 ppm) was 44% and the “Control (%)” value ([12]; 12.5 ppm) was 66%. The “Control (%)” value ([12]; 25 ppm) was 88%, the “control of cucumber downy mildew” value ([12]; 25 ppm) was 100% and the “Control (%)” value ([12]; 50 ppm) was 96%. The “control of cucumber downy mildew” value ([12]; 50 ppm) was 100%, the “Control (%)” value ([12]; 100 ppm) was 100% and the “Biological activity in greenhouse, cucumber downy mildew” value ([12]; 400 ppm, Table 21) was 100. The “control of cucumber downy mildew” value ([12]; 400 ppm) was 100%.

Reference: patent US8614214B2, “Pyrazole amide compounds and uses thereof” (Sinochem Corporation, priority 2010, dated 2013)
